Data from ChEMBL document CHEMBL6071142, “Isoalantolactone/hydroxamic acid hybrids as potent dual STAT3/HDAC inhibitors and self-assembled nanoparticles for cancer therapy” (Eur J Med Chem, 2024).
The source made the active and inactive calls. No cut-off for these calls is given here.

What was measured:
[1] = system: A549; assay: In vivo antitumor activity against human A549 cells xenografted in female BALB/c nu/nu mouse assessed as decrease in STAT3 phosphorylation level at 5 mg/kg, iv administered every 3 days for 9 days by Western blotting analysis; format: functional, organism-based; settings: time 3.0 day
[2] = system: A549; assay: Induction of autophagy in human A549 cells transfected with mRFP-GFP-LC3 at 0.5 uM incubated for 24 hrs by confocal microscopic analysis; format: functional, cell-based
[3] = Drug uptake in tumor of nude mouse xenografted with A549 cells assessed as accumulation of tumor tissues at 5 mg/kg, iv using self assembled nanoparticle as source of compound by LC-MS/MS analysis; format: ADME, organism-based; settings: in vivo
[4] = target: Histone deacetylase 2 (Homo sapiens, UniProt Q92769); assay: Inhibition of recombinant human HDAC2 using Boc-Lys (acetyl)-AMC as substrate preincubated with compound for 1 hr followed by substrate addition and measured after 30 mins by microplate reader assay
Histone deacetylase 2, sequence (Q92769 whole entry): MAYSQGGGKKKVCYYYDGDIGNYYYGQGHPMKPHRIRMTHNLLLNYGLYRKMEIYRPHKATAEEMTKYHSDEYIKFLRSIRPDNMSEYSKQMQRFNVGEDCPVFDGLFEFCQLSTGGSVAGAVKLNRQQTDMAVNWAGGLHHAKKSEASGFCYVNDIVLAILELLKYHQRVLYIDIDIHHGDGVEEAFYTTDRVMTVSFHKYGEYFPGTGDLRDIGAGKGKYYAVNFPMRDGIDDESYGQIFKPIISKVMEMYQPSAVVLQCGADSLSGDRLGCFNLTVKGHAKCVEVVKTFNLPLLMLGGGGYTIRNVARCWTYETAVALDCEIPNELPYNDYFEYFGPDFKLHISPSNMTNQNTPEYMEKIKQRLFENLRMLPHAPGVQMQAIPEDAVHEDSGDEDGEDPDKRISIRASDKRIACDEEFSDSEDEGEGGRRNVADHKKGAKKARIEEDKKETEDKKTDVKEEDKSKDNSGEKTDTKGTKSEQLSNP

[5] = target: Signal transducer and activator of transcription 3 (Homo sapiens, UniProt P40763); assay: Binding affinity to recombinant human STAT3 using 5-FAM-G(pTyr)LPQTV-NH2 as substrate preincubated with compound for 1 hr followed by substrate addition and measured after 30 mins by fluorescent polarization based binding assay
Signal transducer and activator of transcription 3, sequence (P40763 whole entry): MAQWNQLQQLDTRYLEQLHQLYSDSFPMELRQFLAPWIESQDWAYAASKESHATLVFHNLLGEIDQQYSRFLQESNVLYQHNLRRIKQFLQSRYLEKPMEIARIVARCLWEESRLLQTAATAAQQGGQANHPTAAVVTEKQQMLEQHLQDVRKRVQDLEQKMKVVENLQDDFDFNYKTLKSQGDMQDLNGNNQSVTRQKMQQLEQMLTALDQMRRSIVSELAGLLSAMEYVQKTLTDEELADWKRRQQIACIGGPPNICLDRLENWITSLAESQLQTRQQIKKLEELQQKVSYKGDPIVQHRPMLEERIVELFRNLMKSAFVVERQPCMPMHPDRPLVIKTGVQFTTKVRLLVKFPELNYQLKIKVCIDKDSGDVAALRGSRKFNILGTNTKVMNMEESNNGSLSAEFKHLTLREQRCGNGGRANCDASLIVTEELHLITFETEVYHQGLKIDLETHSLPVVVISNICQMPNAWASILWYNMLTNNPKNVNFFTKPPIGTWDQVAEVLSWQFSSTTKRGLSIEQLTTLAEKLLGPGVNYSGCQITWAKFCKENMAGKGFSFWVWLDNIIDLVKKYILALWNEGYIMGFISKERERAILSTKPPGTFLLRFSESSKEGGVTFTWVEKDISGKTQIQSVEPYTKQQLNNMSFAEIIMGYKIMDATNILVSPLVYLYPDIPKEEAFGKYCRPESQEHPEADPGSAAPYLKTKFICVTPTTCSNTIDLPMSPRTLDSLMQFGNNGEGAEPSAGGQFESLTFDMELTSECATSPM

[6] = Toxicity in female BALB/c nu/nu mouse xenografted with human A549 cells assessed as effect on heart at 2.5 mg/kg, iv by H and E staining based analysis; format: organism-based; settings: in vivo
[7] = system: A549; assay: Induction of autophagy in human A549 cells assessed as upregulation of LC3-II at 4 uM incubated for 12 hrs by Western blot analysis
[8] = Biodistribution in lung of nude mouse xenografted with A549 cells at 5 mg/kg, iv using chlorine e6 loaded self-assembled nanoparticle as source of compound incubated for 24 hrs by ex-vivo fluorescence based LC-MS/MS analysis; format: ADME, organism-based
[9] = Binding affinity to STAT2 (unknown origin) assessed as dissociation constant by SPR assay; set-up: species or system Homo sapiens
[10] = Toxicity in female BALB/c nu/nu mouse xenografted with human A549 cells assessed as effect on liver at 2.5 mg/kg, iv by H and E staining based analysis; format: organism-based; settings: in vivo
[11] = target: Histone deacetylase 3 (Homo sapiens, UniProt O15379); assay: Inhibition of recombinant human HDAC3 using Boc-Lys (acetyl)-AMC as substrate preincubated with compound for 1 hr followed by substrate addition and measured after 30 mins by microplate reader assay
Histone deacetylase 3, sequence (O15379 whole entry): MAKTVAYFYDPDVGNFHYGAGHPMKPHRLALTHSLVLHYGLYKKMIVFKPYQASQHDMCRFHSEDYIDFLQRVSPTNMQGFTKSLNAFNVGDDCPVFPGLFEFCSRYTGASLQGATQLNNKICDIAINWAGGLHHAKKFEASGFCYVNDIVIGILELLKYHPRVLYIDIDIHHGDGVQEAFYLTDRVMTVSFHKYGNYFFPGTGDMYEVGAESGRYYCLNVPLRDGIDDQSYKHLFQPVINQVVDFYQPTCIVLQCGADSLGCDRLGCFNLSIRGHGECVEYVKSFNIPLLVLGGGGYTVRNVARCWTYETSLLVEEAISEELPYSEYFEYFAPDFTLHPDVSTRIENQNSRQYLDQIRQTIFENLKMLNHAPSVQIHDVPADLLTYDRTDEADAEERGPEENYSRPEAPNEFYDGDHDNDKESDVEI

[12] = Toxicity in female BALB/c nu/nu mouse xenografted with human A549 cells assessed as effect on liver at 5 mg/kg, iv by H and E staining based analysis; format: organism-based; settings: in vivo
[13] = system: A549; assay: Induction of autophagy in human A549 cells transfected with mRFP-GFP-LC3 assessed as increase in red puncta at 0.5 uM incubated for 24 hrs by confocal microscopic analysis; format: functional, cell-based
[14] = system: A549; assay: Induction of apoptosis in human A549 cells at 2 uM incubated for 24 hrs by Annexin V-FITC/PI staining based flow cytometric analysis; format: functional
[15] = system: A549; assay: Induction of apoptosis in human A549 cells assessed as early apoptotic cells at 4 uM incubated for 24 hrs by Annexin V-FITC/PI staining based flow cytometric analysis (reference value: 1.53%); format: functional
[16] = system: A549; assay: Induction of autophagy in human A549 cells transfected with mRFP-GFP-LC3 assessed as increase in yellow puncta at 0.5 uM incubated for 24 hrs by confocal microscopic analysis; format: functional, cell-based
[17] = target: Histone deacetylase 5 (Homo sapiens, UniProt Q9UQL6); assay: Inhibition of recombinant human HDAC5 using Boc-Lys (trifluroacetyl)-AMC as substrate preincubated with compound for 1 hr followed by substrate addition and measured after 30 mins by microplate reader assay
Histone deacetylase 5, sequence (Q9UQL6 whole entry): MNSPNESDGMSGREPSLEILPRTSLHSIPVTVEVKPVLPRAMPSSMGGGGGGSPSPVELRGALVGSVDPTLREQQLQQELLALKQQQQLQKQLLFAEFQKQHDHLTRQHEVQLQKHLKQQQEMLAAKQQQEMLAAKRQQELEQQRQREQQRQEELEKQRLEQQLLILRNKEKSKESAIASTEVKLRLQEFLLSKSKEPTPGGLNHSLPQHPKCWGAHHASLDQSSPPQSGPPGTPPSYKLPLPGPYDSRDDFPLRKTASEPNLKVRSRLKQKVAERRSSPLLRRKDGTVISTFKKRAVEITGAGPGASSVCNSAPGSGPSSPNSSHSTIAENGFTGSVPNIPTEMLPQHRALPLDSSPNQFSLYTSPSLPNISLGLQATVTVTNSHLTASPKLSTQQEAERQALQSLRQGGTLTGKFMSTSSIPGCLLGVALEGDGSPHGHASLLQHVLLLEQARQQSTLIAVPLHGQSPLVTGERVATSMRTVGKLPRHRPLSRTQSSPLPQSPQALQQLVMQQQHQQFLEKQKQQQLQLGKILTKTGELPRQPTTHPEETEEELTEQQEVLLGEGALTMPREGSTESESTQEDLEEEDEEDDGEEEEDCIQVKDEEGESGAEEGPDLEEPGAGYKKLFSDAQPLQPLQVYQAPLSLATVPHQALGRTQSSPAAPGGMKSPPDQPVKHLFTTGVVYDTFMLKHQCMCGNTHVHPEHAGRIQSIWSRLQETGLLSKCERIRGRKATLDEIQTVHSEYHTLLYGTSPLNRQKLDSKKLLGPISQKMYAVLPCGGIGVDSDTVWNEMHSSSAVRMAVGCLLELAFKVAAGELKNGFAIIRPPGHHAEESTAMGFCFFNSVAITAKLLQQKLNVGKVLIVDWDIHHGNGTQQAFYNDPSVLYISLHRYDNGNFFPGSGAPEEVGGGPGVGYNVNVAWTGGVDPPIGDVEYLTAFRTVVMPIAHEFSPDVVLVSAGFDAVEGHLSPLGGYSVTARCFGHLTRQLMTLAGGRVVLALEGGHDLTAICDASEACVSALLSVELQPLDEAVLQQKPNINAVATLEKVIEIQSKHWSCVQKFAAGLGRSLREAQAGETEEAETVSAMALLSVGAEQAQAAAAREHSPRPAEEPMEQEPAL

[18] = Toxicity in female BALB/c nu/nu mouse xenografted with human A549 cells assessed as effect on body weight at 5 mg/kg, iv and measured regularly; format: organism-based; settings: in vivo
[19] = target: Signal transducer and activator of transcription 6 (Homo sapiens, UniProt P42226); assay: Binding affinity to STAT6 (unknown origin) assessed as dissociation constant by SPR assay
[20] = system: A549; assay: Induction of autophagy in human A549 cells transfected with mRFP-GFP-LC3 assessed as increase in LC3-II:LC3-I protein level at 0.5 uM by Western blot analysis; format: functional, cell-based; settings: time 0-72 hrs, TDE = time-dependent effect
[21] = system: HepG2; assay: Anticancer activity against human HepG2 cells assessed as cell viability incubated for 72 hrs using self assembled nanoparticle as source of compound by CCK-8 assay; format: functional, cell-based; settings: HepG2, 72 h
[22] = target: Protein deacetylase HDAC6 (Homo sapiens) (UniProt Q9UBN7); assay: Inhibition of HDAC6 in human A549 cells assessed as increase in […] level at 0.5 uM incubated for 12 hrs by Western blot analysis; format: cell-based
Protein deacetylase HDAC6 (Homo sapiens), sequence (Q9UBN7 whole entry): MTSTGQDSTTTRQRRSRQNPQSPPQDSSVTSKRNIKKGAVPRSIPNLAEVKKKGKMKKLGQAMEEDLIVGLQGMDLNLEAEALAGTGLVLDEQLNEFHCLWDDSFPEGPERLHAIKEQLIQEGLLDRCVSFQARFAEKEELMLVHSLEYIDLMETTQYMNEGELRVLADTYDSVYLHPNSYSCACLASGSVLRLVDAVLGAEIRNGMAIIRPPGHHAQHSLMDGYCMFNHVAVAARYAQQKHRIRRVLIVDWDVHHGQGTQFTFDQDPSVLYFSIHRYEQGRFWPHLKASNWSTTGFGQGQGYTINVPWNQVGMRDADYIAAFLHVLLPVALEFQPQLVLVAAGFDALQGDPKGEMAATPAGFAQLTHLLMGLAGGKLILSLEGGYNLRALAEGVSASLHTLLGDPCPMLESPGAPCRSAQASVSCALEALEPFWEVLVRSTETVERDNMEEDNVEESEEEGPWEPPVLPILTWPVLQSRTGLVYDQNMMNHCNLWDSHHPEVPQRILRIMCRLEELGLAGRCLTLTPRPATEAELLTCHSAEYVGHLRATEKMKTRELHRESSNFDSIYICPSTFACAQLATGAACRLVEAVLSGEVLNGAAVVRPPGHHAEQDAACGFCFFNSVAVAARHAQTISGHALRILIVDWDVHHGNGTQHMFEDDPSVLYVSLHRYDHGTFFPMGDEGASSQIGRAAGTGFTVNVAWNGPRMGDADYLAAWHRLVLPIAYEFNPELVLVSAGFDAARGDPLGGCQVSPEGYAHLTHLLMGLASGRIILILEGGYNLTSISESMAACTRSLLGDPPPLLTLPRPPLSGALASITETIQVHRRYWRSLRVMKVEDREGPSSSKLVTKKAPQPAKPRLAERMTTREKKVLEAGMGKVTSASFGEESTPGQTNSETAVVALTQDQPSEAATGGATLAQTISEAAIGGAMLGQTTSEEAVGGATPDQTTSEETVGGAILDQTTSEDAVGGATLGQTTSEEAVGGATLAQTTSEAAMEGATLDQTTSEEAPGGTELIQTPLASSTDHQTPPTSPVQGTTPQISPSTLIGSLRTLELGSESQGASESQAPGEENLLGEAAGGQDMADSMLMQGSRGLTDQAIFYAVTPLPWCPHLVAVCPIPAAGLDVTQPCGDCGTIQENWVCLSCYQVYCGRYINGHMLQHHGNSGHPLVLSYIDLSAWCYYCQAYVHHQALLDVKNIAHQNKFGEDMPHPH

[23] = system: A549; assay: Induction of autophagy in human A549 cells transfected with mRFP-GFP-LC3 assessed as decrease in P62 protein level at 0.5 uM incubated for 12 hrs by Western blot analysis; format: functional, cell-based
[24] = target: Signal transducer and activator of transcription 5A (Homo sapiens, UniProt P42229); assay: Binding affinity to STAT5A (unknown origin) assessed as dissociation constant by SPR assay
[25] = target: Signal transducer and activator of transcription 1-alpha/beta (Homo sapiens, UniProt P42224); assay: Binding affinity to STAT1 (unknown origin) assessed as dissociation constant by SPR assay
Signal transducer and activator of transcription 1-alpha/beta, sequence (P42224 whole entry): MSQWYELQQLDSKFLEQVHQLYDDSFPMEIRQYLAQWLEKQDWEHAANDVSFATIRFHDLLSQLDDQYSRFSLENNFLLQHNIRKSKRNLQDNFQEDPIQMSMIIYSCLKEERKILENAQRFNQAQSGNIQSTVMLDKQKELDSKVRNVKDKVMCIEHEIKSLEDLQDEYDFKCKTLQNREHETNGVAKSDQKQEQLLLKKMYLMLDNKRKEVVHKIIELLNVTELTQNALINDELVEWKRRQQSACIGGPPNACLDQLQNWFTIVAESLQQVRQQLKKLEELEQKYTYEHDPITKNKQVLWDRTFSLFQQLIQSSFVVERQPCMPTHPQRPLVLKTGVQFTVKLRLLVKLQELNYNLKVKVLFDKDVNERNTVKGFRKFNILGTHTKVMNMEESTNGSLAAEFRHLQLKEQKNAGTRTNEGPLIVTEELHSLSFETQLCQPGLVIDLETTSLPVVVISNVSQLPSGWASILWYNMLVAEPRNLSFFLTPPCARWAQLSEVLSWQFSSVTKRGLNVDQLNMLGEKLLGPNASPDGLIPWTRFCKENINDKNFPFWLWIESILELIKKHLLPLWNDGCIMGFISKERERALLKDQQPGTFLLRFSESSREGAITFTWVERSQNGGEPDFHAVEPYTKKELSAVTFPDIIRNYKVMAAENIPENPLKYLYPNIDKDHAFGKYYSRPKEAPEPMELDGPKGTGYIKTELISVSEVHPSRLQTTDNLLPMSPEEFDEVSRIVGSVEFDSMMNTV

[26] = system: A549; assay: Induction of autophagy in human A549 cells transfected with mRFP-GFP-LC3 assessed as increase in LC3-II protein level at 0.5 uM incubated for 12 hrs by Western blot analysis; format: functional, cell-based
[27] = Toxicity in female BALB/c nu/nu mouse xenografted with human A549 cells assessed as effect on kidney at 2.5 mg/kg, iv by H and E staining based analysis; format: organism-based; settings: in vivo
[28] = Drug accumulation in nude mouse xenografted with A549 cells assessed as increase in fluorescence at 5 mg/kg, iv using chlorine e6 loaded self-assembled nanoparticle as source of compound incubated for 24 hrs by ex-vivo fluorescence based analysis; format: ADME, organism-based
[29] = system: A549; assay: In vivo antitumor activity against human A549 cells xenografted in female BALB/c nu/nu mouse assessed as tumor volume at 5 mg/kg, iv administered every 3 days using self assembled nanoparticle as source of compound and measured on 18 day relative to control; format: functional; settings: time 3 day
[30] = Biodistribution in heart of nude mouse xenografted with A549 cells at 5 mg/kg, iv using chlorine e6 loaded self-assembled nanoparticle as source of compound incubated for 24 hrs by ex-vivo fluorescence based LC-MS/MS analysis; format: ADME, organism-based

- Drug uptake [3]: Active
- IC50 [4]: 52.6 nM
- IC50 [5]: 350 nM
- Activity ([5]; time 1.5 hrs): Dose-Dependent Effect
- Drug uptake [8]: Active
- Kd [9]: Not Active
- IC50 [11]: 51.9 nM
- IC50 [17]: > 10000 nM
- Kd [19]: Not Active
- IC50 [21]: 170 nM
- inhibition [22]: Active
- Kd [24]: Not Active
- Kd [25]: Not Active
- Drug uptake [28]: Active
- Drug uptake [30]: Active
SMILES: C=C1C(=O)O[C@@H]2C[C@@]3(C)CC[C@@H](OC(=O)[C@H](C)NC(=O)c4ccc(/C=C/C(=O)NO)cc4)C(=C)[C@@H]3C[C@H]12
- Activity [1]: Active
- Activity [2]: Active
- Activity [6]: Non-Toxic
- Activity [7]: Active
- Activity [10]: Non-Toxic
- Activity [12]: Non-Toxic
- Activity [13]: Active
- Activity [14]: 15%
- Activity [15]: 5.3%
- Activity [16]: Active
- Activity [18]: Non-Toxic
- Activity [20]: Tde
- Activity [23]: Active
- Activity [26]: Active
- Activity [27]: Non-Toxic
- Activity [29]: 19.9%
